According to PMC8851282, “Senolysis induced by 25-hydroxycholesterol targets CRYAB in multiple cell types” (iScience, 2022):

Experiments:
[1] = tested on: human liver stellate cells (hLSCs); assay: Cell viability assay of NS and Doxo- or IR-induced senescent hLSCs treated with 25HC; type: cell-based; conditions: 100 μM after 3 days; Doxo or IR induced senescence
Procedure: (§1) Figure 7 25HC treatment timeline and its effects on NS and SEN hCMECs, hLSCs, hRPTECs, and hACs All cell types were treated with either DMSO, 250 nM Doxo or 10-Gy IR at the times shown. 25HC treatment was started 24 h after Doxo or IR treatment. Cell viability was measured every 3–5 days for 15 days. Optimal treatment times for maximum senolysis are shown for each cell type: day 15 for hCMECs, day 3 for hLSCs, day 9 for hRPTECs and day 12 for hACs. For qRT-PCR: mean ± SE, n =4, ∗p< 0.05, ∗∗p< 0.01, ∗∗∗p<0.001, ∗∗∗∗p<0.0001 by Dunnett’s multiple comparisons test vs DMSO or NS, For cell viability assays: mean ± SE, n =3, ∗∗p< 0.01, ∗∗∗p<0.001, ∗∗∗∗p<0.0001 vs 0 mM by student’s t test.
(§2) All experiments were performed in incubators at 37 °C, 3% O2 and 5% CO2. Senescence was induced by treatment with either Doxo (250 nM for 24 h) ([Demaria et al., 2017]) or X-irradiation (10 Gy) ([Limbad et al., 2020]). […]
(§3) Cell viability was assessed using a cell counting kit-8 from Dojindo Molecular Technologies, Inc (Cat CK04-20). […] The supernatant was transferred to a new 96-well plate and absorbance read at 450 nm as recommended in the product datasheet. […]
Cells were treated with either DMSO or 250 nM Doxo for 24 h. […] Cell viability was measured every 3-–5 days until 15 days.
(b) 25HC effects on NS or IR-treated hLSCs at vari ous ti mes. […] Cell viability was measured every 3–5 days until 15 days. […]

[2] = tested on: human articular chondrocytes (hAC); assay: Cell viability assay of NS and Doxo- or IR-induced senescent hACs treated with 25HC; type: cell-based; conditions: 11.1 μM after 12 days; Doxo or IR induced senescence
Procedure: as §1, §2, §3
Cells were treated with DMSO or 250 nM Doxo for 24 h. […] Cell viability was measured every 3–5 days until 15 days. […] Cell viability was measured every 3–5 days until 15 days. […]

[3] = tested on: Cdkn1a mRNA and SASP factors in skeletal muscle; assay: qRT-PCR of senescence markers, Cryab and SASP factors in skeletal muscles of aged mice given 25HC; type: in vivo, mouse

C[C@H](CCCC(C)(C)O)[C@H]1CC[C@H]2[C@@H]3CC=C4C[C@@H](O)CC[C@]4(C)[C@H]3CC[C@]12C [25HC, 25-hydroxycholesterol]
senolysis in hLSCs [1]: induced significant senolysis | senolysis in hACs [2]: induced significant senolysis | Cdkn1a mRNA induction by aging in gastrocnemius and soleus muscles ([3]; 24–26-month-old mice, both genders, 25HC 50 mg/kg i.p. for 5 days): significantly reduced | expression of SASP factors, including IL6, in skeletal muscle ([3]; mice treated with 25HC (Figures S17 and S18)): substantially inhibited
